Experimental data published in patent publication US9161935B2 (TEVA PHARMACEUTICAL INDUSTRIES, LTD., priority 2012, dated 2015).

System: Sub-Populations of Crohn's Disease Patients
Assay: CD-LAQ-201 sub-populations of Crohn's disease patients (Example 2)
Type: in vivo, human
Description: This study was conducted according and with similar requirements as presented in Example 1. […] Patients, who have received anti-TNFαs in the past, tend to reflect a more severe, refractory segment of the Crohn's disease population. […] This sub-cohort analysis describes remission rates at week 8 for patients who were classified as having a predominantly inflammatory disease (based on the Montreal classifications) versus those that have a fibrostenotic or penetrating disease.

[1] = Laq 1.0 mg, Previous use of anti-TNFαs YES, week 8
[2] = Laq 1.5 mg, Fibrostenotic, week 8
[3] = Laq 1.5 mg, Inflammatory, week 8
[4] = Laq 1.5 mg, Oral steroids on Baseline NO
[5] = Laq 1.5 mg, Oral steroids on Baseline NO, week 8
[6] = Laq 1.5 mg, Oral steroids on Baseline YES
[7] = Laq 1.5 mg, Oral steroids on Baseline YES, week 8
[8] = Laq 1.5 mg, Previous Operations NO
[9] = Laq 1.5 mg, Previous Operations NO, week 8
[10] = Laq 1.5 mg, Previous Operations YES
[11] = Laq 1.5 mg, Previous Operations YES, week 8
[12] = Laq 1.5 mg, Previous use of anti-TNFαs NO
[13] = Laq 1.5 mg, Previous use of anti-TNFαs NO, week 8
[14] = Laq 1.5 mg, Previous use of anti-TNFαs YES
[15] = Laq 1.5 mg, Previous use of anti-TNFαs YES, week 8
[16] = Laq 2.0 mg, Fibrostenotic, week 8
[17] = Laq 2.0 mg, Inflammatory, week 8
[18] = Laq 2.0 mg, Oral steroids on Baseline NO
[19] = Laq 2.0 mg, Oral steroids on Baseline NO, week 8
[20] = Laq 2.0 mg, Oral steroids on Baseline YES
[21] = Laq 2.0 mg, Oral steroids on Baseline YES, week 8
[22] = Laq 2.0 mg, Previous Operations NO
[23] = Laq 2.0 mg, Previous Operations NO, week 8
[24] = Laq 2.0 mg, Previous Operations YES
[25] = Laq 2.0 mg, Previous Operations YES, week 8
[26] = Laq 2.0 mg, Previous use of anti-TNFαs NO
[27] = Laq 2.0 mg, Previous use of anti-TNFαs NO, week 8
[28] = Laq 2.0 mg, Previous use of anti-TNFαs YES
[29] = Laq 2.0 mg, Previous use of anti-TNFαs YES, week 8

## CCN(C(=O)c1c(O)c2c(Cl)cccc2n(C)c1=O)c1ccccc1 [laquinimod]
Laq 1.0 mg, Previous use of anti-TNFαs YES
  Responders100 - N (%): N: 5
[1]
  Remission - N (%): %: 16.7%
  Remission - N (%): N: 3
Laq 1.5 mg, Fibrostenotic
  CDAI Change from Baseline - Mean ± SD: −51.8
  Responders70 - N (%): %: 27.8%
  Responders70 - N (%): N: 5
  Responders100 - N (%): %: 27.8%
  Responders100 - N (%): N: 5
[2]
  Remission - N (%): %: 11.1%
  Remission - N (%): N: 2
Laq 1.5 mg, Inflammatory
  CDAI Change from Baseline - Mean ± SD: −43.8
  Responders70 - N (%): %: 36.4%
  Responders70 - N (%): N: 4
  Responders100 - N (%): %: 27.3%
  Responders100 - N (%): N: 3
[3]
  Remission - N (%): %: 18.2%
  Remission - N (%): N: 2
[4]
  CDAI Change from Baseline - Mean ± SD: −46.8
  Responders70 - N (%): %: 25.0%
  Responders70 - N (%): N: 5
  Responders100 - N (%): %: 20.0%
  Responders100 - N (%): N: 4
[5]
  Remission - N (%): %: 10.0%
  Remission - N (%): N: 2
[6]
  CDAI Change from Baseline - Mean ± SD: −52.6
  Responders70 - N (%): %: 44.4%
  Responders70 - N (%): N: 4
  Responders100 - N (%): %: 44.4%
  Responders100 - N (%): N: 4
[7]
  Remission - N (%): %: 22.2%
  Remission - N (%): N: 2
[8]
  CDAI Change from Baseline - Mean ± SD: −68.3
  Responders70 - N (%): %: 43.8%
  Responders70 - N (%): N: 7
  Responders100 - N (%): %: 37.5%
  Responders100 - N (%): N: 6
[9]
  Remission - N (%): %: 25.0%
  Remission - N (%): N: 4
[10]
  CDAI Change from Baseline - Mean ± SD: −26.0
  Responders70 - N (%): %: 15.4%
  Responders70 - N (%): N: 2
  Responders100 - N (%): %: 15.4%
  Responders100 - N (%): N: 2
[11]
  Remission - N (%): %: 0.0%
  Remission - N (%): N: 0
[12]
  CDAI Change from Baseline - Mean ± SD: −95.5
  Responders70 - N (%): %: 54.5%
  Responders70 - N (%): N: 6
  Responders100 - N (%): %: 45.5%
  Responders100 - N (%): N: 5
[13]
  Remission - N (%): %: 27.3%
  Remission - N (%): N: 3
[14]
  CDAI Change from Baseline - Mean ± SD: −18.4
  Responders70 - N (%): %: 16.7%
  Responders70 - N (%): N: 3
  Responders100 - N (%): %: 16.7%
  Responders100 - N (%): N: 3
[15]
  Remission - N (%): %: 5.6%
  Remission - N (%): N: 1
Laq 2.0 mg, Fibrostenotic
  CDAI Change from Baseline - Mean ± SD: −40.7
  Responders70 - N (%): %: 22.2%
  Responders70 - N (%): N: 4
  Responders100 - N (%): %: 22.2%
  Responders100 - N (%): N: 4
[16]
  Remission - N (%): %: 16.7%
  Remission - N (%): N: 3
Laq 2.0 mg, Inflammatory
  CDAI Change from Baseline - Mean ± SD: −33.1
  Responders70 - N (%): %: 36.4%
  Responders70 - N (%): N: 4
  Responders100 - N (%): %: 36.4%
  Responders100 - N (%): N: 4
[17]
  Remission - N (%): %: 18.2%
  Remission - N (%): N: 2
[18]
  CDAI Change from Baseline - Mean ± SD: −39.7
  Responders70 - N (%): %: 29.2%
  Responders70 - N (%): N: 7
  Responders100 - N (%): %: 29.2%
  Responders100 - N (%): N: 7
[19]
  Remission - N (%): %: 16.7%
  Remission - N (%): N: 4
[20]
  CDAI Change from Baseline - Mean ± SD: −20.3
  Responders70 - N (%): %: 20.0%
  Responders70 - N (%): N: 1
  Responders100 - N (%): %: 20.0%
  Responders100 - N (%): N: 1
[21]
  Remission - N (%): %: 20.0%
  Remission - N (%): N: 1
[22]
  CDAI Change from Baseline - Mean ± SD: −54.6
  Responders70 - N (%): %: 37.5%
  Responders70 - N (%): N: 6
  Responders100 - N (%): %: 37.5%
  Responders100 - N (%): N: 6
[23]
  Remission - N (%): %: 18.8%
  Remission - N (%): N: 3
[24]
  CDAI Change from Baseline - Mean ± SD: −14.2
  Responders70 - N (%): %: 15.4%
  Responders70 - N (%): N: 2
  Responders100 - N (%): %: 15.4%
  Responders100 - N (%): N: 2
[25]
  Remission - N (%): %: 15.4%
  Remission - N (%): N: 2
[26]
  CDAI Change from Baseline - Mean ± SD: −56.4
  Responders70 - N (%): %: 55.6%
  Responders70 - N (%): N: 10
  Responders100 - N (%): %: 33.3%
  Responders100 - N (%): N: 6
[27]
  Remission - N (%): %: 27.8%
  Remission - N (%): N: 5
[28]
  CDAI Change from Baseline - Mean ± SD: −102.2
  Responders70 - N (%): %: 50.0%
  Responders70 - N (%): N: 6
  Responders100 - N (%): %: 50.0%
  Responders100 - N (%): N: 6
[29]
  Remission - N (%): %: 25.0%
  Remission - N (%): N: 3
Laquinimod 0.5 mg
  effect of oral steroids together with laquinimod on remission at week 8: potential synergistic effect
  effect on remission at week 8 with or without previous operations: had an effect over placebo in both sub-populations
Laquinimod 0.5 mg and 1 mg, week 8
  remission in predominantly inflammatory disease vs the complementary cohort: may work better
